Assay results as given in patent US20050215614A1, “Substituted indoles and their use as hcv inhibitors” (Rigel Pharmaceuticals, Inc., priority 2003, published 2005).

System: HCV replicon
Test: HCV Replicon Assay (luciferase, 5-2 Luc replicon cells)
Type: cell-based
Conditions: 5-2 Luc replicon cells (Huh7), 24-48 hours with compound, luciferase counts
Experimental: Actively dividing 5-2 Luc replicon cells were seeded at the density of 5000-7500 cells/well in the volume of 90 μl/well into 96 well plate(s). The cells were then incubated at 37° C. and 5% CO2 for 24 hours. The 5-2 cells are replicon cells licensed from Ralf Bartenschlager (Germany) and have a self-replicating RNA molecule in the Huh7 cell; the RNA contains HCV non-structural proteins that make the self-replication possible.
Various concentrations of compounds (in the volume of 10 μl) were added into each well 24 hours after seeding the cells. The cells were incubated for another 24-48 hours before luciferase assay.
After incubating the 5-2 Luc replicon cells with the compounds for 24-48 hours, media were aspirated from each well and Bright-Glo (Promega) luciferase assay reagents were added to each well according to the manufacturer′s manual. Briefly, the Bright-Glo reagent was diluted with equal volume of PBS and an aliquote (100 μl) was added to each well. After incubating the plate at room temperature for 5 minutes, luciferase counts were taken using a luminometer.

Structure (SMILES) | Activity (concentration of inhibitory activity)
Cc1cc2cc(NC(=O)C3CCCCC3)ccc2n1C(=O)c1c(F)cccc1Cl [Compound 16e-2, 1-(2′-Chloro-6′-fluorobenzoyl)-5-Cyclohexanecarbonylamino-2-methylindole] | a (“a” indicates inhibitory activity at a concentration of less than 10 micromolar)
Cc1cc2cc(NC(=O)C3CCC3)ccc2n1C(=O)c1c(F)cccc1Cl [Compound 16e-3, 1-(2′-Chloro-6′-fluorobenzoyl)-5-cyclobutanecarbonylamino-2-methylindole] | a (“a” indicates inhibitory activity at a concentration of less than 10 micromolar)
Cc1cc2cc(NC(=O)C3CC3)ccc2n1C(=O)c1c(F)cccc1Cl [Compound 16e-4, 1-(2′-Chloro-6′-fluorobenzoyl)-5-cyclopropanecarbonylamino-2-methylindole] | a (“a” indicates inhibitory activity at a concentration of less than 10 micromolar)
Cc1cc2cc(NC(=O)C3CCC(=O)C3)ccc2n1C(=O)c1c(F)cccc1Cl (stereo not shown) [Compound 16e-5, 1-(2′-Chloro-6′-fluorobenzoyl)-5-(3-oxo-1-cyclopentanecarbonyl)amino-2-methylindole] | a (“a” indicates inhibitory activity at a concentration of less than 10 micromolar)
Cc1cccc(C)c1C(=O)n1c(C)cc2cc(NC(=O)C3CCCC3)ccc21 [Compound 16f-1, 5-Cyclopentanecarbonylamino-1-(2′,6′-dimethylbenzoyl)-2-methylindole] | a (“a” indicates inhibitory activity at a concentration of less than 10 micromolar)
Cc1cccc(C)c1C(=O)n1c(C)cc2cc(NC(=O)C3CCCCC3)ccc21 [Compound 16f-2, 5-Cyclohexanecarbonylamino-1-(2′,6′-dimethylbenzoyl)-2-methylindole] | a (“a” indicates inhibitory activity at a concentration of less than 10 micromolar)
Cc1cccc(C)c1C(=O)n1c(C)cc2cc(NC(=O)C3CCC3)ccc21 [Compound 16f-3, 5-Cyclobutanecarbonylamino-1-(2′,6′-dimethylbenzoyl)-2-methylindole] | a (“a” indicates inhibitory activity at a concentration of less than 10 micromolar)
Cc1cccc(C)c1C(=O)n1c(C)cc2cc(NC(=O)C3CC3)ccc21 [Compound 16f-4, 5-Cyclopropanecarbonylamino-1-(2′,6′-dimethylbenzoyl)-2-methylindole] | a (“a” indicates inhibitory activity at a concentration of less than 10 micromolar)
Cc1cccc(C)c1C(=O)n1c(C)cc2cc(NC(=O)C3CCC(=O)C3)ccc21 (stereo not shown) [Compound 16f-5, 1-(2′,6′-Dimethylbenzoyl)-5-(3-oxo-1-cyclopentanecarbonyl)amino-2-methylindole] | a (“a” indicates inhibitory activity at a concentration of less than 10 micromolar)
Cc1cc2cc(NC(=O)C3CCCC3)ccc2n1C(=O)c1cc(Cl)nc(Cl)c1 [Compound 16g-1, 5-Cyclopentanecarbonylamino-l-(2′,6′-dichloro-4′-pyridylcarbonyl)-2-methylindole] | a (“a” indicates inhibitory activity at a concentration of less than 10 micromolar)
Cc1cc2cc(NC(=O)C3CC3)ccc2n1C(=O)c1cc(Cl)nc(Cl)c1 [Compound 16g-2, 5-Cyclopropanecarbonylamino-1-(2′,6′-dichloro-4′-pyridylcarbonyl)-2-methylindole] | a (“a” indicates inhibitory activity at a concentration of less than 10 micromolar)
Cc1cc2cc(NC(=O)C3CCC(=O)C3)ccc2n1C(=O)c1cc(Cl)nc(Cl)c1 (stereo not shown) [Compound 16g-3, 1-(2′,6′-Dichloro-4-pyridylcarbonyl)-5-(3-oxo-1-cyclopentanecarbonyl)amino-2-methylindole] | a (“a” indicates inhibitory activity at a concentration of less than 10 micromolar)
Cc1cc2cc(NC(=O)C3CCCC3)ccc2n1C(=O)c1ccccc1Cl [Compound 18, 1-(2′-Chlorobenzoyl)-5-cyclopentanecarbonylamino-2-methylindole] | b (“b” indicates activity is at a concentration greater than 10 micromolar)
COc1ccccc1C(=O)n1c(C)cc2cc(NC(=O)C3CCCC3)ccc21 [Compound 19, 1-(o-Anisoyl)-5-cyclopentanecarbonylamino-2-methylindole] | a (“a” indicates inhibitory activity at a concentration of less than 10 micromolar)
CC(C)(C)c1cc2cc(NC(=O)CCN3CCCCC3)ccc2[nH]1 [Compound 213] | b (“b” indicates activity is at a concentration greater than 10 micromolar)
CC(=O)N1CCC(C(=O)Nc2ccc3[nH]c(C(C)(C)C)cc3c2)CC1 [Compound 214] | b (“b” indicates activity is at a concentration greater than 10 micromolar)
CC(C)(C)c1cc2cc(NC(=O)CCc3c[nH]c4ccccc34)ccc2[nH]1 [Compound 215] | b (“b” indicates activity is at a concentration greater than 10 micromolar)
CC(C)(C)c1cc2cc(NC(=O)Cc3ccc4c(c3)OCO4)ccc2[nH]1 [Compound 216] | b (“b” indicates activity is at a concentration greater than 10 micromolar)
CC(C)(C)c1cc2cc(NC(=O)Cc3cccnc3)ccc2[nH]1 [Compound 217] | b (“b” indicates activity is at a concentration greater than 10 micromolar)
CC(=O)NCCC(=O)Nc1ccc2[nH]c(C(C)(C)C)cc2c1 [Compound 218] | b (“b” indicates activity is at a concentration greater than 10 micromolar)

Structure (SMILES) | Activity (concentration of inhibitory activity)
CC(C)(C)c1cc2cc(NC(=O)CC(c3ccccc3)c3ccccc3)ccc2[nH]1 [Compound 219] | b (“b” indicates activity is at a concentration greater than 10 micromolar)
CC(C)(C)c1cc2cc(NC(=O)Cc3ccc(F)cc3)ccc2[nH]1 [Compound 220] | b (“b” indicates activity is at a concentration greater than 10 micromolar)
CC(C)(C)c1cc2cc(NC(=O)Cc3ccc(-c4ccccc4)cc3)ccc2[nH]1 [Compound 221] | b (“b” indicates activity is at a concentration greater than 10 micromolar)
CN(C)CCCC(=O)Nc1ccc2[nH]c(C(C)(C)C)cc2c1 [Compound 222] | b (“b” indicates activity is at a concentration greater than 10 micromolar)
COc1cscc1C(=O)Nc1ccc2[nH]c(C(C)(C)C)cc2c1 [Compound 223] | a (“a” indicates inhibitory activity at a concentration of less than 10 micromolar)
CCCC(=O)Nc1ccc2[nH]c(C(C)(C)C)cc2c1 [Compound 224] | b (“b” indicates activity is at a concentration greater than 10 micromolar)
CC(C)(C)c1cc2cc(NC(=O)c3ccccc3)ccc2[nH]1 [Compound 225] | b (“b” indicates activity is at a concentration greater than 10 micromolar)
CC(C)(C)c1cc2cc(NC(=O)c3cccc(F)c3)ccc2[nH]1 [Compound 226] | b (“b” indicates activity is at a concentration greater than 10 micromolar)
CC(C)(C)c1cc2cc(NC(=O)c3cccc(Cl)c3)ccc2[nH]1 [Compound 227] | b (“b” indicates activity is at a concentration greater than 10 micromolar)
CC(C)(C)c1cc2cc(NC(=O)c3cc4ccccc4s3)ccc2[nH]1 [Compound 228] | b (“b” indicates activity is at a concentration greater than 10 micromolar)
CC(C)(C)c1cc2cc(NC(=O)c3sccc3Cl)ccc2[nH]1 [Compound 229] | b (“b” indicates activity is at a concentration greater than 10 micromolar)
CC(C)(C)c1cc2cc(NC(=O)c3ccco3)ccc2[nH]1 [Compound 230] | b (“b” indicates activity is at a concentration greater than 10 micromolar)
Cc1cn(C(=O)c2c(Cl)cccc2Cl)c2ccc(NC(=O)C3(c4ccc(Cl)cc4)CCCC3)cc12 [Compound 231] | b (“b” indicates activity is at a concentration greater than 10 micromolar)
Cc1cn(C(=O)c2c(Cl)cccc2Cl)c2ccc(NC(=O)c3c(Cl)cccc3Cl)cc12 [Compound 232] | b (“b” indicates activity is at a concentration greater than 10 micromolar)
Cc1ccsc1C(=O)Nc1ccc2c(c1)c(C)cn2C(=O)c1c(Cl)cccc1Cl [Compound 233] | b (“b” indicates activity is at a concentration greater than 10 micromolar)
Cc1cn(C(=O)c2c(Cl)cccc2Cl)c2ccc(NC(=O)c3c(F)cccc3F)cc12 [Compound 235] | b (“b” indicates activity is at a concentration greater than 10 micromolar)
Cc1cn(C(=O)c2c(Cl)cccc2Cl)c2ccc(NC(=O)C3CCCCC3)cc12 [Compound 236] | b (“b” indicates activity is at a concentration greater than 10 micromolar)
Cc1cn(C(=O)c2c(Cl)cccc2Cl)c2ccc(NC(=O)/C=C/c3ccccc3)cc12 [Compound 237] | b (“b” indicates activity is at a concentration greater than 10 micromolar)
Cc1c(C)n(C(=O)c2c(Cl)cccc2Cl)c2ccc(NC(=O)/C=C/c3ccccc3)cc12 [Compound 238] | b (“b” indicates activity is at a concentration greater than 10 micromolar)
Cc1cc2cc(NC(=O)C3CCCC3)ccc2n1C(=O)c1ccc(Cl)cc1Cl [Compound 239] | b (“b” indicates activity is at a concentration greater than 10 micromolar)
